13 molecules from patent US9511058B2, “Methods for using carboxamide, sulfonamide and amine compounds” (Rigel Pharmaceuticals, Inc., priority 2010, dated 2016) can be followed below.

Molecules are shown by their SMILES. Where only a bound is given, the exact number is not on record here.

For one assay, the target named is AMPK. The experiment in a line: AMPK activation, enzyme-linked immunosorbent assay. The assay is classed as biochemical. The conditions noted are these: compounds of Table 1 (Table 6). The method, then: Compounds of Table 1 were assayed for their ability to activate AMPK using an enzyme-linked immunosorbent assay.
Compounds of Table 2 were assayed for their ability to activate AMPK using an enzyme-linked immunosorbent assay.
Compounds of Table 3 were assayed for their ability to activate AMPK using an enzyme-linked immunosorbent assay.
Compounds of Table 4 were assayed for their ability to activate AMPK using an enzyme-linked immunosorbent assay.
Compounds of Table 5 were assayed for their ability to activate AMPK using an enzyme-linked immunosorbent assay.
By EC50 is commonly meant the concentration that produces a half-maximal response. High values mean a less potent agent, low ones a more potent agent. On to `CN(C(=O)c1cc2cc(OC3CCN(c4ccc(C(F)(F)F)cc4)CC3)ccc2o1)C1CCN(Cc2cccc(C#N)c2)CC1` [1-110, N-(1-(3-cyanobenzyl)piperidin-4-yl)-N-methyl-5-(1-(4-(trifluoromethyl)phenyl)piperidin-4-yloxy)benzofuran-2-carboxamide], for which the EC50 is < 0.1 µM.

`O=C(NC1CCN(Cc2ccncc2)CC1)c1ccnc(OC2CCN(c3ccc(C(F)(F)F)cc3)CC2)c1` [1-20, N-(1-(pyridin-4-ylmethyl)piperidin-4-yl)-2-(1-(4-(trifluoromethyl)phenyl)piperidin-4-yloxy)isonicotinamide] yielded an EC50 of 0.5 to 1 µM.

For the molecule `O=C(NC1CCN(Cc2ccccn2)CC1)c1sc2cc(OC3CCN(c4ccc(C(F)(F)F)cc4)CC3)ccc2c1Cl` [1-153, 3-chloro-N-(1-(pyridin-2-ylmethyl)piperidin-4-yl)-6-(1-(4-(trifluoromethyl)phenyl)piperidin-4-yloxy)benzo[b]thiophene-2-carboxamide], the EC50 was in the range of 0.1 to 0.5 µM.

`CC(C)(C)OC(=O)N1CCC(NC(=O)c2cc3cc(OC4CCN(c5ccc(C(F)(F)F)cc5)CC4)ccc3o2)CC1` [1-85, tert-butyl 4-(5-(1-(4-(trifluoromethyl)phenyl)piperidin-4-yloxy)benzofuran-2-carboxamido)piperidine-1-carboxylate] displayed an EC50 of 0.5 to 1 µM.

Staying with this assay, now noted: compounds of Table 2 (Table 7).
`O=C(NC1CCN(c2ccc(F)cc2)CC1)c1ccc2[nH]c3c(c2c1)CN(Cc1ccc(C(F)(F)F)cc1)CC3` [2-15, N-(1-(4-fluorophenyl)piperidin-4-yl)-2-(4-(trifluoromethyl)benzyl)-2,3,4,5-tetrahydro-1H-pyrido[4,3-b]indole-8-carboxamide]: the EC50 was < 0.5 µM.

The molecule `O=C(NC1CCN(C(=O)Nc2ccc(C(F)(F)F)cc2)CC1)c1ccc2[nH]c3c(c2c1)CN(Cc1ccc(C(F)(F)F)cc1)CC3` [2-33, 2-(4-(trifluoromethyl)benzyl)-N-(1-(4-(trifluoromethyl)phenylcarbamoyl)piperidin-4-yl)-2,3,4,5-tetrahydro-1H-pyrido[4,3-b]indole-8-carboxamide] came in with a concentration giving a half-maximal response (EC50) of 1 to 5 µM.

The same assay, now with this note: compounds of Table 3 (Table 8).
Turning to `N#Cc1ccc(CN2CCC(NC(=O)c3ccc(C(=O)N4CCN(c5ccc(C(F)(F)F)cn5)CC4)cc3)CC2)cc1` [3-30, N-(1-(4-cyanobenzyl)piperidin-4-yl)-4-(4-(5-(trifluoromethyl)pyridin-2-yl)piperazine-1-carbonyl)benzamide], the EC50 is < 0.1 µM.

Take `N#Cc1ccc(CN2CCc3ccc(C(=O)NC4CCN(Cc5cccnc5)CC4)cc3C2)cc1` [3-38, 2-(4-cyanobenzyl)-N-(1-(pyridin-3-ylmethyl)piperidin-4-yl)-1,2,3,4-tetrahydroisoquinoline-7-carboxamide]: the EC50 is < 0.1 µM.

The assay is the same for the next values; noted with them: compounds of Table 5 (Table 10).
Consider `CC(C)(C)C(=O)N1CCC(Oc2ccc(C(=O)NC3CCN(Cc4ccccc4)CC3)cc2Cl)CC1` [5-91, N-(1-benzylpiperidin-4-yl)-3-chloro-4-(1-pivaloylpiperidin-4-yloxy)benzamide], for which the EC50 was < 1 µM.

As for `O=C(NC1CCN(Cc2ccccc2)CC1)c1ccc(OC2CCN(Cc3ccc(F)cc3)CC2)c(F)c1` [5-61, N-(1-benzylpiperidin-4-yl)-3-fluoro-4-(1-(4-fluorobenzyl)piperidin-4-yloxy)benzamide], the EC50 is < 1 µM.

Consider `O=C(NC1CCN(Cc2ccccc2)CC1)c1ccc(OC2CCN(Cc3cccc(C(F)(F)F)c3)CC2)c(F)c1` [5-59, N-(1-benzylpiperidin-4-yl)-3-fluoro-4-(1-(3-(trifluoromethyl)benzyl)piperidin-4-yloxy)benzamide], for which the EC50 is < 1 µM.

On to `O=C(NC1CCN(Cc2ccccc2)CC1)c1cc(Cl)c(OC2CCN(Cc3cccc(C(F)(F)F)c3)CC2)c(Cl)c1` [5-62, N-(1-benzylpiperidin-4-yl)-3,5-dichloro-4-(1-(3-(trifluoromethyl)benzyl)piperidin-4-yloxy)benzamide], for which the EC50 was < 1 µM.

Consider `CC(C)(C)C(=O)N1CCC(NC(=O)c2ccc(OC3CCN(c4ccc(C(F)(F)F)cc4)CC3)c(F)c2)CC1` [5-30, 3-fluoro-N-(1-pivaloylpiperidin-4-yl)-4-(1-(4-(trifluoromethyl)phenyl)piperidin-4-yloxy)benzamide], for which the EC50 is < 1 µM.
